Results taken from ChEMBL document CHEMBL1201862, “PubChem BioAssay data set” (2004).
Activity calls are given as the source filed them.

Columns and labels:
[1] = molecular target: T1, Heat shock factor protein 1 (Mus musculus, UniProt P38532); assay: inhibition of MG132-induced HSE-luciferase signal, confirmation, cell-based, NIH3T3, luminescence, dose retest (AID 2382); type: functional;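 further: NIH3T3 fibroblasts with HSF1-driven luciferase reporter stressed by proteasome inhibitor MG132; luminescence from HSF1-driven luciferase expression after 8 hours of MG132 stress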
T1 sequence (P38532 whole entry): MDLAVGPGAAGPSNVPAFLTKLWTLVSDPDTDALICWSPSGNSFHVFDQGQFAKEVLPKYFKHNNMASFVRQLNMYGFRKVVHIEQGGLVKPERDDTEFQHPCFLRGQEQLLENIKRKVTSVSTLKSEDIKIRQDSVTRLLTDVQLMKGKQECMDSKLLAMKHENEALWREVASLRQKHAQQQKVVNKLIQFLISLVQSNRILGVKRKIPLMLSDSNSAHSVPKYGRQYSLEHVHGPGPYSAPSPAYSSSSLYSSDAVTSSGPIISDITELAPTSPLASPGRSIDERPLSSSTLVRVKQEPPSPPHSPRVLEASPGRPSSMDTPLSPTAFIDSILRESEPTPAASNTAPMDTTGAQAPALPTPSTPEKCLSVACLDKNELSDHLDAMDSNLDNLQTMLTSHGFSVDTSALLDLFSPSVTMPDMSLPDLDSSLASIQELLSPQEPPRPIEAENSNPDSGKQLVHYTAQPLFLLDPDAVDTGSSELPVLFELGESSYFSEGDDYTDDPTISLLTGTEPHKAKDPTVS

[2] = molecular target: T1, Heat shock factor protein 1; assay: HSF1 potentiators in luciferase reporter cells, confirmation, cell-based, NIH3T3, luminescence, dose retest (AID 435004); type: functional;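 further: stress induced by proteasome inhibitor MG132 added 30 min after compound; luciferase reporter driven by HSF1 response element in NIH3T3 cells; actives raise luminescence as potentiators of the MG132 stress response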
Cytochrome P450 2C9 = Cytochrome P450 2C9 (Homo sapiens, UniProt P11712)
Protein RecA = molecular target: T2, Protein RecA (Mycobacterium tuberculosis, UniProt P9WHJ3); assay: Fluorescence Cell-Free Homogeneous Dose Retest to Identify Inhibitors of RecA-Intein Splicing Activity. [Related pubchem assays (depositor defined):AID2097, AID2223, AID489010, AID492950]; type: functional
T2 sequence (P9WHJ3 whole entry): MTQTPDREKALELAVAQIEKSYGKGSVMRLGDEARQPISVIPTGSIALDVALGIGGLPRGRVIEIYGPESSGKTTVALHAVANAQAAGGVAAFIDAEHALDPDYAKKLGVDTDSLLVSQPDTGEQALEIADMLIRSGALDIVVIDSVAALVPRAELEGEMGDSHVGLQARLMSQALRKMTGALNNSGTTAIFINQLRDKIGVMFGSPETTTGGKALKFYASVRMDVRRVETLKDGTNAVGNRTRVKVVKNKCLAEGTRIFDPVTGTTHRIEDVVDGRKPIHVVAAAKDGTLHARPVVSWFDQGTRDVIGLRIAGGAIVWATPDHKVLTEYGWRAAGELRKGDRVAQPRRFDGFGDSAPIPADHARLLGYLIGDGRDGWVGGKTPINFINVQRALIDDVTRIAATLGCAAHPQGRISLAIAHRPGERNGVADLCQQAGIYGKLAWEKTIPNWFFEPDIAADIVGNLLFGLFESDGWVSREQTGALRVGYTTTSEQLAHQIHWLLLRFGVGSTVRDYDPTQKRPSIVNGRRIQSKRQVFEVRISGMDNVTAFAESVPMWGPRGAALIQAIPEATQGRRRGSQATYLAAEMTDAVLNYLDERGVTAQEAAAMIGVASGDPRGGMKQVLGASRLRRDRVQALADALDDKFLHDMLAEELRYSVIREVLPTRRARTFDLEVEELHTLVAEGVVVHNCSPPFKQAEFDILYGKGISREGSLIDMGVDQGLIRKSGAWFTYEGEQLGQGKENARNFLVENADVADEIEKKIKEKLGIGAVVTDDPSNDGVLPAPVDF

[3] = molecular target: T3, Replicative DNA helicase DnaB (Mycobacterium tuberculosis, UniProt P9WMR3); assay: DnaB intein splicing inhibitors, dose response, biochemical, cell-free fluorescence (AID 449749); type: functional
T3 sequence (P9WMR3 whole entry): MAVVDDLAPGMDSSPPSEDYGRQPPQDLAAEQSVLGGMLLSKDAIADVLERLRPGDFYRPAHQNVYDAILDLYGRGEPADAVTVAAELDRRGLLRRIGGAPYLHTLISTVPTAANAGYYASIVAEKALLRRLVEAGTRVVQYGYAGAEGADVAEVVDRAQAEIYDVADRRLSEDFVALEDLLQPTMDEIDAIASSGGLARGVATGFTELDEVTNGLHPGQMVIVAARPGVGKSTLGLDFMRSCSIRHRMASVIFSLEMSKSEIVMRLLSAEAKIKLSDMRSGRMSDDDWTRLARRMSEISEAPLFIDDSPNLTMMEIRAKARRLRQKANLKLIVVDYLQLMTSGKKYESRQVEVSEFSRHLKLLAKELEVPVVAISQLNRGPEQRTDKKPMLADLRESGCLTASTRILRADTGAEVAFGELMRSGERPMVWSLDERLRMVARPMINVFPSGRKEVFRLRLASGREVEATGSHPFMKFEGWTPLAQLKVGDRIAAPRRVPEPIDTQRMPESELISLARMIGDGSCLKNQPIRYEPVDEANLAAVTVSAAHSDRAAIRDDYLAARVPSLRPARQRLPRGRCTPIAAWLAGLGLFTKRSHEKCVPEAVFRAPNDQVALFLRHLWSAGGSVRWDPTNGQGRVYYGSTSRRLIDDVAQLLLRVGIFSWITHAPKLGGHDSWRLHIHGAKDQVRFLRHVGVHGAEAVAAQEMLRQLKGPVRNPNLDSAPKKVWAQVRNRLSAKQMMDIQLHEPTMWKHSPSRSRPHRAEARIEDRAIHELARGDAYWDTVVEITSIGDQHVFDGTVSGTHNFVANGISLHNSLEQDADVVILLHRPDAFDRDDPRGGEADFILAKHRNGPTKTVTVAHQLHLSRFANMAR

Cytochrome P450 2C19 = Cytochrome P450 2C19 (Homo sapiens, UniProt P33261); assay: Cytochrome panel assay with activity outcomes. Panel member name: p450-cyp2c19 Compounds with AC50 equal or less than 10 uM are considered active; type: functional; conditions: read-out: AC50
[4] = inhibitors of firefly luciferase expression or activity, dose response, H4 neuroglioma cells, luminescence (AID 1990); type: functional, cell-based
[5] = Luminescence Cell-Based Dose Response HTS to Identify Inhibitors of 5'UTR Stem-Loop Driven Prion Protein mRNA Translation in H4 Neuroglioblastoma Cells. [Related pubchem assays: 1827 (Project Summary), 1813 (Primary HTS)]; type: functional
[6] = inhibitors of SNCA 5'UTR-driven reporter translation, confirmation, H4 neuroglioma cells, luminescence (AID 1988); type: functional, cell-based
[7] = cytotoxicity toward NIH3T3 fibroblasts, dose response, counter-screen, cell-based, ATP luminescence, mouse fibroblasts (AID 2010); type: functional;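 further: cells exposed to compound for about 90 hours before reading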
[8] = inhibitors of intracellular T. cruzi replication, confirmation, NIH3T3 host cells, beta-gal luminescence (AID 2044); type: functional, cell-based;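 further: intracellular parasites grown in NIH/3T3 mouse fibroblasts as host cells; luminescent beta-galactosidase reporter signal from transgenic T. cruzi replicating inside host cells; inhibitors lower the luminescence signal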

Cytochrome P450 2C9, sequence (P11712 whole entry): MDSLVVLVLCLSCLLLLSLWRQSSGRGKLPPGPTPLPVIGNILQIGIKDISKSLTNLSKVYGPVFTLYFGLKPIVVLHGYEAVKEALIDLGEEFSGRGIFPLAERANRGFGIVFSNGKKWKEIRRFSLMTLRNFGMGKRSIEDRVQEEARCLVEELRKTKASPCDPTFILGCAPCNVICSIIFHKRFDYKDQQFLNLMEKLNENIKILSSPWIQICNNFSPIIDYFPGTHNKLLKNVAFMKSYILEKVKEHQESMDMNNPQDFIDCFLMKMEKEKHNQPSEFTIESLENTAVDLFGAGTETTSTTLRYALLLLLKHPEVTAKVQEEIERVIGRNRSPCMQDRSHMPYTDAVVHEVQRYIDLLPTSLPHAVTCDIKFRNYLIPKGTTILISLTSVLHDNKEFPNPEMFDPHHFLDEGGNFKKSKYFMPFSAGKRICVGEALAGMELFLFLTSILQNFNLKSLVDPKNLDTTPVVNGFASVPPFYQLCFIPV
Cytochrome P450 2C19, sequence (P33261 whole entry): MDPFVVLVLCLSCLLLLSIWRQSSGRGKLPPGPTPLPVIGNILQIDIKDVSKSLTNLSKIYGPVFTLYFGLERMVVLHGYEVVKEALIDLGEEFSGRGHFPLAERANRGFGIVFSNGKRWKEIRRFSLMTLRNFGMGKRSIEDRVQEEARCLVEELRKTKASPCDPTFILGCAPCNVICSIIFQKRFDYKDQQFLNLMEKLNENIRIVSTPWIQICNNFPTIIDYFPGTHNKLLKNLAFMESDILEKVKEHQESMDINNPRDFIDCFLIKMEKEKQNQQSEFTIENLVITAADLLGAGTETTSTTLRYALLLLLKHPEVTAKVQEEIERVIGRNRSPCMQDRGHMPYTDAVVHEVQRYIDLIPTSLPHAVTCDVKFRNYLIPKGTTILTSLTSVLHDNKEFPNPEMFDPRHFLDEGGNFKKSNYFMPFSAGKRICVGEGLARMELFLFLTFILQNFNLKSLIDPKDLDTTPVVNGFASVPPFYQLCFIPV

O=C(Nc1ccc2[nH]ncc2c1)c1ccccc1Cl
EC50 [1]: > 195 µM (not active)

Cc1ccc2c(c1)N(Cc1ccc([N+](=O)[O-])cc1)C=NS2(=O)=O
EC50 [1]: > 195 µM (not active)

CN1CCN(C(=O)c2cc([N+](=O)[O-])cc([N+](=O)[O-])c2)CC1
EC50 [1]: > 195 µM (not active)

CCc1ccc(NC(=O)COC(=O)/C=C/c2c(C)nn(C3CCS(=O)(=O)C3)c2Cl)cc1 (stereo unspecified)
EC50 [2]: > 260 µM (inactive)

O=C(Cc1ccccc1)NC(=S)Nc1cc(C(F)(F)F)ccc1Cl
AC50 (Cytochrome P450 2C9): 3.55 µM (inconclusive)

CCN1C(=O)[C@H]2[C@@H](c3ccc(C)cc3)N3C(=O)N(c4ccc(C)cc4)C(=O)[C@@]3(C)[C@H]2C1=O
EC50 [1]: > 195 µM (not active)

COC(=O)c1c(N2C(=O)[C@H]3[C@@H](C2=O)[C@]2(C(=O)Nc4c(C)cccc42)N2CCC[C@@H]32)sc(C)c1C
EC50 [1]: > 195 µM (not active)

CN(C)c1ccc(C(=O)n2nnc3ccccc32)cc1
EC50 (Protein RecA): 9.71 µM (active) | AC50 [3]: 7.46 µM (active)

O=C1CC(N2C(=O)/C(=C/C=C/c3ccccc3)SC2=S)C(=O)N1c1ccccc1 (stereo unspecified)
EC50 [2]: > 260 µM (inactive)

COc1cc(C(=O)N(C)C2CCCN(Cc3ccccc3F)C2)cc(OC)c1OC (stereo unspecified)
EC50 [1]: > 195 µM (not active)

CC(C)C(C(=O)NCC1CCCO1)N(Cc1ccco1)C(=O)CNS(=O)(=O)c1ccc(F)cc1 (stereo unspecified)
AC50 (Cytochrome P450 2C9): 39.8 µM (inconclusive) | AC50 (Cytochrome P450 2C19): 11.2 µM (inconclusive)

COc1ccc2[nH]c(CN3CCC(CO)(CCOc4ccccc4)CC3)c(C)c2c1
EC50 (Protein RecA): > 380 µM (inactive) | AC50 [3]: > 380 µM (inactive)

COc1ccc(N(CC(=O)Nc2cccc(C)c2)S(=O)(=O)c2c(C)noc2C)cc1
EC50 [1]: > 195 µM (not active)

CCOc1ccc(NC(=S)N(CCc2ccncc2)C(C)C)cc1
EC50 [1]: > 195 µM (not active)

CCC12C(=O)C(CC)(C(c3ccccc3)=C1c1ccccc1)[C@@H]1C(=O)N(c3ccc(C)cc3)C(=O)C12 (stereo partly specified)
EC50 [4]: 14.8 µM (active) | EC50 [5]: > 120 µM (not active) | EC50 [6]: > 120 µM (not active) | EC50 [7]: > 30 µM (not active) | EC50 [8]: 2.87 µM (active)

O=S(=O)(NCc1ccccn1)c1ccc2ccccc2c1
EC50 [2]: > 260 µM (inactive)

COc1cccc(NC=C2C(=O)CC(C)(C)CC2=O)c1
EC50 [2]: 8.09 µM (active)

COc1c([N+](=O)[O-])c(=O)oc2ccccc12
EC50 [1]: > 195 µM (not active)

CCN(C1CCS(=O)(=O)C1)S(=O)(=O)c1cccs1 (stereo unspecified)
EC50 [1]: > 195 µM (not active)

Clc1ccccc1-c1cncnc1NCc1cccs1
AC50 (Cytochrome P450 2C9): 0.794 µM (inconclusive)

Cc1n[nH]c(O)c1C(c1ccc(F)cc1)c1c(C)n[nH]c1O
EC50 (Protein RecA): 0.291 µM (active) | AC50 [3]: 0.628 µM (active)

Cc1ccccc1/[N+]([O-])=C/c1cccs1
EC50 [2]: > 260 µM (inactive)

Fc1ccccc1-c1nc2nc3ccccc3nc2n1CC1CCCO1 (stereo unspecified)
EC50 [2]: > 260 µM (inactive)

CCOc1ccccc1-c1noc(CCCC(=O)NC2CCCCC2)n1
EC50 [2]: > 260 µM (inactive)

COc1ccc(Cc2noc(-c3ccc(OC)c(OC)c3)n2)cc1OC
EC50 [4]: > 120 µM (not active) | EC50 [5]: > 120 µM (not active) | EC50 [6]: > 120 µM (not active)

Cc1ccc2oc(C(=O)N3CCC(C(N)=O)(N4CCCCC4)CC3)c(C)c2c1
EC50 [1]: > 195 µM (not active)

Cc1sc2ncnc(N3CCOCC3)c2c1C
EC50 [4]: 20.4 µM (active) | EC50 [5]: 40.6 µM (active) | EC50 [6]: 17.5 µM (active)

Cc1n[nH]c(O)c1C(c1ccc2c(c1)OCO2)c1c(C)n[nH]c1O
EC50 (Protein RecA): 0.189 µM (active) | AC50 [3]: 0.324 µM (active)

O=S1(=O)C=C(N2CCOCC2)c2ccccc21
AC50 (Cytochrome P450 2C9): 39.8 µM (inconclusive)

CC1(c2cccs2)CC(c2cccs2)=C(C#N)C(=O)N1 (stereo unspecified)
EC50 [2]: > 260 µM (inactive)

O=C(NCc1nc2ccccc2[nH]1)C1=C[C@@H](c2ccc3c(c2)OCO3)C[C@@H](OCc2ccc(CO)cc2)O1
EC50 [1]: > 195 µM (not active)

O=C(Nc1ccc2c(c1)ncn2C1CCCCC1)c1ccco1
EC50 [1]: > 195 µM (not active)

CCOc1ccccc1NC(=O)Cn1nnc(C(=O)NCc2ccc3c(c2)OCO3)c1N
EC50 [4]: > 120 µM (not active) | EC50 [5]: 36.7 µM (active) | EC50 [6]: > 120 µM (not active)

CCO/C(O)=C1/C(C)=Nc2ncnn2C1c1cccnc1 (stereo unspecified)
AC50 (Cytochrome P450 2C9): 25.1 µM (inconclusive) | AC50 (Cytochrome P450 2C19): 22.4 µM (inconclusive)

CCCN(CCC)C(=O)CSc1nc2nnc(C)c-2c(N)n1-c1ccc(OC)cc1
EC50 [4]: 19.3 µM (active) | EC50 [5]: 19.8 µM (active) | EC50 [6]: 16.1 µM (active)

O=C(Nc1cccc(-c2ccc(F)cc2)c1)C1CCCN(C(=O)c2cscn2)C1 (stereo unspecified)
EC50 [1]: > 195 µM (not active)

COc1ccc(Cl)cc1N1C(=O)/C(=C\c2sccc2C)N=C1SCC(=O)NC1CC1
EC50 [2]: > 260 µM (inactive)

COc1ccc(N2CCN(C(=O)COC(=O)CCOc3ccccc3C)CC2)cc1
EC50 [1]: > 195 µM (not active)

O=C(Cc1cccs1)NCc1ccccc1Br
EC50 [2]: > 260 µM (inactive)

N#Cc1ccc(CN2CCC3(CC2)CCN(C(=O)c2cnccn2)CC3)cc1
AC50 (Cytochrome P450 2C9): 39.8 µM (inconclusive)

Cc1cc(C)n(-c2nc3ccccc3s2)n1
EC50 [1]: > 195 µM (not active)

COC(=O)Nc1ccc(S(=O)(=O)Nc2cccc3ccccc23)cc1
EC50 [2]: > 260 µM (inactive)

COc1ccc(N2CCN(C(c3cccs3)C(C)NS(=O)(=O)c3ccccc3)CC2)cc1 (stereo unspecified)
EC50 [2]: > 260 µM (inactive)

CN1CCN(C(=O)c2ccc(Cn3cc(Cl)cn3)o2)CC1
EC50 [2]: > 260 µM (inactive)

CC(C)C(C)N(Cc1ccc(C(=O)O)cc1)C(=O)c1ccc2ccccc2n1 (stereo unspecified)
EC50 [2]: > 260 µM (inactive)

COc1cc(OC)cc(C(=O)N/N=C(\C)CC(=O)Nc2ccccn2)c1
EC50 (Protein RecA): 7.81 µM (active) | AC50 [3]: 13.1 µM (active)

S=C1NCCN1 [ETHYLENE THIOUREA]
EC50 [1]: > 195 µM (not active)
